In patent publication US8338460B2, “2-pyridinecarboxamide derivative having GK-activating effect” (MSD K. K., priority 2006, dated 2012):
≈ marks a conversion by molar mass, not a printed value.

What was measured:
[1] = Comparative test of solubility; assay type: physicochemical; conditions: water, thermodynamic from solid
[2] = biological target: T1, recombinant human liver GK (Homo sapiens, UniProt P35557); assay: Glucokinase-activating effect (Thio-NADH coupled assay with G6PDH); assay type: biochemical; conditions: 2.5 mM glucose, 30° C.
T1 construct: made in house; host or cells: E. coli
T1 sequence (P35557 1-466 isoform P35557-2): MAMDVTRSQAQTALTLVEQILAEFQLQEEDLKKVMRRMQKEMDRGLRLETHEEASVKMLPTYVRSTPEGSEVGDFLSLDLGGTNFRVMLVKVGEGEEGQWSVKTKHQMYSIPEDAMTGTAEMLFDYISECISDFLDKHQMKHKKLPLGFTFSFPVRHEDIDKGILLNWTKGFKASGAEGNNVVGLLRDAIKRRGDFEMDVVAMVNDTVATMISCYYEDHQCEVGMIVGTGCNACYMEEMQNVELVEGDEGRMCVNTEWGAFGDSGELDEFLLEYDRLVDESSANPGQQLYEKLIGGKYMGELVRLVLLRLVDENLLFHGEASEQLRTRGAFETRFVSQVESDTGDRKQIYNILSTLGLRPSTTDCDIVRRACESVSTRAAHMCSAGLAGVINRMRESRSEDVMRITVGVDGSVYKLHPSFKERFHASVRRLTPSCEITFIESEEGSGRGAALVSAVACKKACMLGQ
From the text: Pharmacological Experiment 1 (Glucokinase-Activating Effect)
The excellent glucokinase-activating effect of the compounds of formula (I) may be determined by a method described in references (for example, Diabetes, Vol. 45, pp. 1671-1677, 1996), or in accordance with it.
The glucokinase activity may be determined not by directly measuring glucose-6-phosphate but by measuring the level of Thio-NADH, which is produced when a reporter enzyme, glucose-6-phosphate dehydrogenase produces phosphogluconolactone from glucose-6-phosphate, and based on the level, the degree of glucokinase activation by the compound tested may be determined.
In this assay, used was a recombinant human liver GK, which was expressed by E. coli as a FLAG fusion protein therein and was purified by ANTIFLAG M2 AFFINITY GEL (Sigma).
Using a flat-bottomed 96-well plate, the assay was carried out at 30° C. 69 μl of an assay buffer (25 mM Hepes Buffer/pH=7.2, 2 mM MgCl2, 1 mM ATP, 0.5 mM TNAD, 1 mM dithiothreitol) was put into the plate, and 1 μl of a DMSO solution of the compound or DMSO alone as a control was added thereto. Next, 20 μl of an enzyme mixture (FLAG-GK, 20 U/ml G6PDH) cooled in ice was added to it, and 10 μl of a substrate, 25 mM glucose was added to it, and the reaction was initiated (final glucose concentration=2.5 mM).
After the start of the reaction, the increase in the absorbance at 405 nm was measured for 12 minutes at intervals of 30 seconds, and the increase for the first 5 minutes was used for assessing the compound tested. FLAG-GK was added so that the absorbance increase after 5 minutes in the presence of 1% DMSO could be from 0.04 to 0.06.
The OD level of the DMSO control was set as 100%; and the OD level of the test compound at different concentrations was determined. From the OD level at each concentration, Emax (%) and EC50 (μM) were computed and used as the index of the GK-activating potency of the compound.

[3] = Comparative test of solubility; assay type: physicochemical; conditions: shaken 75 min; for solubility thermodynamic at 75 min: 200 mM potassium phosphate buffer, pH 7.4, aqueous buffer, read-out: Solibility to 200 mM potassium phosphate buffer; for solubility thermodynamic at 75 min / solubility at 75 min: thermodynamic from solid; for solubility at 75 min: JP-1 artificial gastric fluid, pH 1.2, simulated gastric fluid, JP-1 pH1.2 (artificial gastric fluid), 1 mg in 1 ml
Description: Experiment 3 (Comparative Test of Solubility)
1 mg of compounds were placed in 1 ml of medium (JP-1, […] potassium phosphate buffer) and was shaken on a shaking-incubator for 75 min. (1000 rpm). After centrifugation, concentration of supernatant was analyzed by HPLC.
JP1: pH1.2 (artificial gastric fluid: 35 mM NaCl, 84 mM HCl in water)
2.0 g of NaCl, 7.0 ml of HCl and water were mixed in a measuring flask (1000 ml).
200 mM potassium phosphate buffer: pH7.4
200 mM K2HPO4 and 200 mM KH2PO4 were mixed and adjusted to pH7.4 by using pH meter.

[4] = test system: Male beagle dogs; assay: Pharmacological test in dog: plasma glucose after oral administration; assay type: in vivo; conditions: AUC for 4 hr after administration, fasted male beagle dogs
Description: Pharmacological Experiment 2 (Pharmacological Test in Dog)
Male beagle dogs (BW 9.6-13.8 kg) were fasted overnight. Pre-dose blood sampling was performed from cephalic vein. The test drugs, which were suspended into 0.5% methylcellulose, were orally administrated (example 1 at 0.25, 0.5 and 1 mg/kg, and example 4, and compound B at 1 mg/kg). Control group was given 0.5% methylcellulose alone. Blood was taken every 0.5 or 1 hour after the drug dosing. Plasma sample were obtained by centrifugation, and the plasma glucose levels were measured by “Determiner GL-E” (Kyowa Medex Co., Ltd. Japan).

Row | Compound | solubility at 75 min [1] | EC50 [2] | Emax ([2]; OD level of DMSO control set as 100%) | solubility thermodynamic at 75 min ([3]; pH7.4, 1 mg in 1 ml) | solubility at 75 min [3] | % Reduction of plasma glucose AUC ([4]; 1 mg/kg oral) | Solibility to 200 mM potassium phosphate buffer ([3]; pH7.4, 1 mg in 1 ml) | % Reduction of plasma glucose AUC ([4]; 0.25 mg/kg oral) | % Reduction of plasma glucose AUC ([4]; 0.5 mg/kg oral)
1 | Cc1nsc(NC(=O)c2nc(Sc3nncn3C)ccc2Sc2ccc(O[C@@H]3CCN(C(C)C)C3)cc2)n1 [Example 20, 3-[(4-{[(3R)-1-isopropylpyrrolidin-3-yl]oxy}phenyl)thio]-N-(3-methyl-1,2,4-thiadiazol-5-yl)-6-[(4-methyl-4H-1,2,4-triazol-3-yl)thio]pyridine-2-carboxamide] | 127 µg/mL (≈ 223 µM) | 40 nM | 964% | 86.8 µg/mL (≈ 153 µM) | > 1000 µg/mL |  |  |  | 
2 | Cc1nsc(NC(=O)c2nc(Sc3nnc[nH]3)ccc2Sc2ccc(OCCN(C)C)cc2)n1 [Compound (B), reference compound] |  |  |  |  |  | 7.4% |  |  | 
3 | Cc1nsc(NC(=O)c2nc(Sc3nncn3C)ccc2Sc2ccc(OCCN3CCC[C@H]3C)cc2)n1 [Example 4] | 47.4 µg/mL (≈ 83.3 µM) | 150 nM |  |  | > 1000 µg/mL | 26.8% | 47.3 µg/mL |  | 
4 | Cc1nsc(NC(=O)c2nc(Sc3nncn3C)ccc2Sc2ccc(OCCN3CCCCC3)cc2)n1 [Example 26, N-(3-methyl-1,2,4-thiadiazol-5-yl)-6-[(4-methyl-4H-1,2,4-triazol-3-yl)thio]-3-{[4-(2-piperidin-1-ylethoxy)phenyl]thio}pyridine-2-carboxamide] | 176 µg/mL (≈ 309 µM) | 70 nM |  | 239 µg/mL (≈ 421 µM) | > 1000 µg/mL |  |  |  | 
5 | Cc1nsc(NC(=O)c2nc(Sc3nncn3C)ccc2Sc2ccc(OC[C@@H]3CCCN3C)cc2)n1 [Example 7, 3-[(4-{[(2S)-1-methylpyrrolidin-2-yl]methoxy}phenyl)thio]-N-(3-methyl-1,2,4-thiadiazol-5-yl)-6-[(4-methyl-4H-1,2,4-triazol-3-yl)thio]pyridine-2-carboxamide] | 583 µg/mL (≈ 1050 µM) | 60 nM |  | 308 µg/mL (≈ 555 µM) | > 1000 µg/mL |  |  |  | 
6 | Cc1nsc(NC(=O)c2nc(Sc3nncn3C)ccc2Sc2ccc(CCO)cc2)n1 [(A), reference compound] | 2.4 µg/mL (≈ 4.94 µM) |  |  | 3.4 µg/mL (≈ 7 µM) | 6.2 µg/mL (≈ 12.8 µM) |  |  |  | 
7 | CCN(CC)CCOc1ccc(Sc2ccc(Sc3nncn3C)nc2C(=O)Nc2nc(C)ns2)cc1 [Example 24, 3-({4-[2-(diethylamino)ethoxy]phenyl}thio)-N-(3-methyl-1,2,4-thiadiazol-5-yl)-6-[(4-methyl-4H-1,2,4-triazol-3-yl)thio]pyridine-2-carboxamide] | 230 µg/mL (≈ 414 µM) | 40 nM |  | 298 µg/mL (≈ 536 µM) | > 1000 µg/mL |  |  |  | 
8 | CCN(C)CCOc1ccc(Sc2ccc(Sc3nncn3C)nc2C(=O)Nc2nc(C)ns2)cc1 [Example 23, 3-[(4-{2-[ethyl(methyl)amino]ethoxy}phenyl)thio]-N-(3-methyl-1,2,4-thiadiazol-5-yl)-6-[(4-methyl-4H-1,2,4-triazol-3-yl)thio]pyridine-2-carboxamide] | 208 µg/mL (≈ 383 µM) | 60 nM |  | 122 µg/mL (≈ 226 µM) | > 1000 µg/mL |  |  |  | 
9 | CCN1CC(Oc2ccc(Sc3ccc(Sc4nncn4C)nc3C(=O)Nc3nc(C)ns3)cc2)C1 [Example 25, 3-({4-[(1-ethylazetidin-3-yl)oxy]phenyl}thio)-N-(3-methyl-1,2,4-thiadiazol-5-yl)-6-[(4-methyl-4H-1,2,4-triazol-3-yl)thio]pyridine-2-carboxamide] | 16.4 µg/mL (≈ 30.3 µM) | 50 nM |  | 13.8 µg/mL (≈ 25.5 µM) | > 1000 µg/mL | 42.1% |  |  | 
10 | Cc1nsc(NC(=O)c2nc(Sc3nncn3C)ccc2Sc2ccc(OCCN(C)C)cc2)n1 [Example 1, 3-({4-[2-(dimethylamino)ethoxy]phenyl}thio)-N-(3-methyl-1,2,4-thiadiazol-5-yl)-6-[(4-methyl-4H-1,2,4-triazol-3-yl)thio]pyridine-2-carboxamide] | 15.2 µg/mL (≈ 28.8 µM) | 90 nM |  | 17.5 µg/mL (≈ 33.1 µM) | > 1000 µg/mL | 15.7% |  | 7.9% | 10.6%
